Positions of bridges follow the written chain, without caps; N, C: chain ends. Non-standard residues stand in square brackets, D forms with d. Residues, ends and D or L forms follow the SMILES beside them. d(hCys) = N[C@H](CCS)C(=O)O
Tests used:
estrogen receptors = experiment: inhibition of the binding of the estrogen receptors to the helical segment of coactivator proteins; conditions: result in words
Method: (§1) The synthetic helicormimetic peptides designed as antagonists of the estrogen receptor-coactivator interactions were tested in a competition binding assay (Lilly Research Labs) against a model linear peptide sequence. Activities are reported in the Table below in Ki values, with two of the best analogs labeled as PERM-1 and PERM-2, or Peptidomimetic Estrogen Receptor Modulators.

ER alpha = target: T1, ER alpha (Homo sapiens, UniProt P03372); experiment: competition binding assay against a model linear peptide sequence (estrogen receptor-coactivator interaction), ER alpha; conditions: competition binding assay (Lilly Research Labs); read-out: Ki ER α
T1 sequence (P03372 1-595): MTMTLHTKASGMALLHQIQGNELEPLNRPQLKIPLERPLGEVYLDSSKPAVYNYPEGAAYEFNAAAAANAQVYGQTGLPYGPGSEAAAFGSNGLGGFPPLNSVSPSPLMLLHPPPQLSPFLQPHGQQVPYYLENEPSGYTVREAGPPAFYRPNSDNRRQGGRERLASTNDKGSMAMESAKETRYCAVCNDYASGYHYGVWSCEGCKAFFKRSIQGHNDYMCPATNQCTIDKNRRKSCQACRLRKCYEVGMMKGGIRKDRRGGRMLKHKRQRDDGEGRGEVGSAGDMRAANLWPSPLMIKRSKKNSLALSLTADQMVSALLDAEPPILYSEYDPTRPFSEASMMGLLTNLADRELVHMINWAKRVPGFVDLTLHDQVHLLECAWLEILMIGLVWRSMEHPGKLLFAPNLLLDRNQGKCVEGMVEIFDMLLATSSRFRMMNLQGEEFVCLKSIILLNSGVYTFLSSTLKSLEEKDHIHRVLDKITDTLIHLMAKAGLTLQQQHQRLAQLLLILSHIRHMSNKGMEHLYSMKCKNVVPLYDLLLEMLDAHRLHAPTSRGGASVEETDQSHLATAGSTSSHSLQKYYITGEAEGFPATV
Method: as §1

ER beta = ER beta (Homo sapiens, UniProt Q92731); experiment: competition binding assay against a model linear peptide sequence (estrogen receptor-coactivator interaction), ER beta; conditions: competition binding assay (Lilly Research Labs); read-out: Ki ER β
Method: as §1

ER beta, sequence (Q92731 whole entry): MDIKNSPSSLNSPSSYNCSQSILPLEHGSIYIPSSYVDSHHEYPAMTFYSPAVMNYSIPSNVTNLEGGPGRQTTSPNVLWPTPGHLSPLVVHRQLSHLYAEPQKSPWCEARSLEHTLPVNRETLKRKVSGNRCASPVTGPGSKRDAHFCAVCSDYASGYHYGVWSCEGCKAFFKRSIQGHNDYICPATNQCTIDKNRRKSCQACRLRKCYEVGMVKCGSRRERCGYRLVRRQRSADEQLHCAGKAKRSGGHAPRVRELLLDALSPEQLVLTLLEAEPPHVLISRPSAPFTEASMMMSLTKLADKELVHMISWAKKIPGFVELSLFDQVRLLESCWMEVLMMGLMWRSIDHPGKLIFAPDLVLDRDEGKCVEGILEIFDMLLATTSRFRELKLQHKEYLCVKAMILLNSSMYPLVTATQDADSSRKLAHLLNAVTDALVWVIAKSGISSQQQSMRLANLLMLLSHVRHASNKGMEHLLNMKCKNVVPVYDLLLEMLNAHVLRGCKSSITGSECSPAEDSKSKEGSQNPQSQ

Row | Compound | inhibitory activity on binding of estrogen receptors to helical segment of coactivator proteins (estrogen receptors) | Ki (ER alpha) | Ki (ER beta)
1 | Leu-Asn-Gln-Leu-Leu (LNQLL; printed: Leu-Asn-Gln-Leu-Leu) | do not display any inhibitory activity | – | –
2 | CC(C)C[C@H](NC(=O)[C@H](CC(C)C)NC(=O)[C@H](CCCNC(=N)N)NC(=O)[C@H]1CSSC[C@@H](NC(=O)[C@@H](N)CCCCN)C(=O)N[C@@H](CC(C)C)C(=O)N1)C(=O)N[C@@H](CCC(N)=O)C(N)=O [AKG-I-64, H-Lys-cyclo(D-Cys-Leu-D-Cys)-Arg-Leu-Leu-Gln-NH2] (H-K[dC]L[dC]RLLQ-NH2; disulfide 2-4) | – | 1800 nM | 5200 nM
3 | CC[C@H](C)[C@@H]1NC(=O)[C@H](NC(=O)[C@@H](N)CCCNC(=N)N)CCSSC[C@@H](C(=O)N[C@@H](CCCNC(=N)N)C(=O)N[C@@H](CC(C)C)C(=O)N[C@@H](CC(C)C)C(=O)N[C@@H](CCC(N)=O)C(N)=O)NC(=O)[C@H](CC(C)C)NC1=O [AKG-II-4, H-Arg-cyclo (DHomoCys-lIe-Leu-Cys)- Arg-Leu-Leu-Gln-NH2] (H-R[d(hCys)]ILCRLLQ-NH2; disulfide 2-5) | – | 35 nM | 591 nM
4 | CC[C@H](C)[C@@H]1NC(=O)[C@@H](NC(=O)[C@@H](N)CCCCN)CSSC[C@H](C(=O)N[C@@H](CCCNC(=N)N)C(=O)N[C@@H](CC(C)C)C(=O)N[C@@H](CC(C)C)C(=O)N[C@@H](CCC(N)=O)C(N)=O)NC(=O)[C@H](CC(C)C)NC1=O [AKG-I-60, H-Lys-cyclo(Cys-Ile-Leu-D-Cys)-Arg-Leu-Leu-Gln-NH2] (H-KCIL[dC]RLLQ-NH2; disulfide 2-5) | – | 2400 nM | 7200 nM
5 | CC[C@H](C)[C@@H]1NC(=O)[C@H](NC(=O)[C@H](CCCCN)NC(C)=O)CSSC[C@@H](C(=O)N[C@@H](CCCNC(=N)N)C(=O)N[C@@H](CC(C)C)C(=O)N[C@@H](CC(C)C)C(=O)N[C@@H](CCC(N)=O)C(N)=O)NC(=O)[C@H](CC(C)C)NC1=O [AML-I-71/2, Ac-Lys-cyclo(D-Cys-Ile-Leu-Cys)-Arg-Leu-Leu-Gln-NH2] (Ac-K[dC]ILCRLLQ-NH2; disulfide 2-5) | – | 120 nM | 7700 nM

Reference: patent publication US20050054770A1, “Helicomimetics and stabilized lxxll peptidomimetics” (priority 2001, published 2005)
